Conditions: 303.15 K, Liquid, Vibrating tube method

CCCCCCCC(=O)OCC(COC(=O)CCCCCCC)(COC(=O)CCCCCCC)COC(=O)CCCCCCC [pentaerythritol tetraoctanoate]
Conditions	mass density [kg/m3]
28411 kPa	972
28450 kPa	971.9
28485 kPa	972
28563 kPa	972.1
28635 kPa	972
28718 kPa	972.1
28794 kPa	972.2
28833 kPa	972.2
28858 kPa	972
28881 kPa	972.2
28903 kPa	972.2
28932 kPa	972.2
28954 kPa	972.3
28977 kPa	972.2
29007 kPa	972.1
29030 kPa	972.2
29057 kPa	972.3
29081 kPa	972.3
29107 kPa	972.3
29129 kPa	972.3
29159 kPa	972.2
29182 kPa	972.4
29208 kPa	972.2
29237 kPa	972.4
29263 kPa	971.8
29291 kPa	972.4
29316 kPa	972.4
29341 kPa	972.6
29366 kPa	972.4
29397 kPa	972.5
29422 kPa	972.5
29447 kPa	972.5
29476 kPa	972.5
29501 kPa	972.6
29527 kPa	972.6
29551 kPa	972.5
29579 kPa	972.5
29610 kPa	972.6
29627 kPa	972.6
29648 kPa	972.6
29671 kPa	972.6
29696 kPa	972.7
29725 kPa	972.7
29750 kPa	972.6
29775 kPa	972.6
29807 kPa	972.8
29827 kPa	972.7
29857 kPa	972.7
29882 kPa	972.8
29912 kPa	972.7
29937 kPa	972.6
29963 kPa	972.7
29993 kPa	972.9
30018 kPa	972.7
30044 kPa	972.8
30069 kPa	972.8
30100 kPa	972.9
30125 kPa	972.8
30151 kPa	972.8
30183 kPa	972.9
30209 kPa	973
30234 kPa	973
30260 kPa	973
30291 kPa	972.9
30317 kPa	973
30343 kPa	972.9
30374 kPa	973
30400 kPa	972.9
30431 kPa	973.1
30457 kPa	973
30483 kPa	973.1
30510 kPa	973.1
30541 kPa	973
30568 kPa	972.9
30595 kPa	973.1
30626 kPa	973.2
30652 kPa	973.1
30685 kPa	973.2
30711 kPa	973.2
30738 kPa	973.3
30765 kPa	973.1
30797 kPa	973.2
30824 kPa	973.2
30852 kPa	973.1
30884 kPa	973.2
30911 kPa	973.4
30938 kPa	973.2
30971 kPa	973.2
30998 kPa	973.3
31025 kPa	973.3
31057 kPa	973.4
31085 kPa	973.5
31113 kPa	973.5
31145 kPa	973.5
31172 kPa	973.6
31206 kPa	973.4
31234 kPa	973.5
31261 kPa	973.5
31290 kPa	973.5
31323 kPa	973.5
31351 kPa	973.5
31380 kPa	973.6
31413 kPa	973.5
31442 kPa	973.6
31469 kPa	973.7
31503 kPa	973.6
31532 kPa	973.7
31560 kPa	973.7
31589 kPa	973.6
31624 kPa	973.7
31653 kPa	973.6
31681 kPa	973.8
31715 kPa	973.8
31744 kPa	973.7
31773 kPa	973.7
31808 kPa	973.8
31836 kPa	973.7
31865 kPa	973.8
31900 kPa	973.8
31929 kPa	973.8
31958 kPa	973.8
31994 kPa	973.8
32025 kPa	973.9
32055 kPa	973.9
32084 kPa	973.8
32120 kPa	973.9
32150 kPa	974
32179 kPa	973.9
32215 kPa	973.9
32244 kPa	974
32274 kPa	974
32311 kPa	974
32340 kPa	974
32370 kPa	974.1
32407 kPa	974
32432 kPa	974.1
32469 kPa	974.1
32499 kPa	974.2
32535 kPa	974.2
32566 kPa	974.2
32596 kPa	974.2
32626 kPa	974.2
32663 kPa	974.2
32693 kPa	974.1
32730 kPa	974.3
32761 kPa	974.3
32792 kPa	974.3
32829 kPa	974.3

— the NIST ThermoML archive (doi:10.1021/je060271a)
